According to PubChem BioAssay (NCI):
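These data come from cells grown in 96-well plates and exposed to compound for 48 hours at five concentrations. TGI is the concentration that stops growth completely.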 Residues, ends and D or L forms follow the SMILES beside them. *: point of attachment. Boc = CC(C)(C)OC(=O)*; OBn = c1ccc(CO*)cc1

Experiments:
Assay in all cases: NCI tumour cell line growth inhibition, 48 h
786-0 renal = system: 786-0 renal
A498 renal = system: A498 renal
A549 NSCLC = system: A549 NSCLC
ACHN renal = system: ACHN renal
BT-549 breast = system: BT-549 breast
CAKI-1 renal = system: CAKI-1 renal
CCRF-CEM leukemia = system: CCRF-CEM leukemia
COLO 205 colon = system: COLO 205 colon
DU-145 prostate = system: DU-145 prostate
EKVX NSCLC = system: EKVX NSCLC
HCC-2998 colon = system: HCC-2998 colon
HCT-116 colon = system: HCT-116 colon
HCT-15 colon = system: HCT-15 colon
HL-60(TB) leukemia = system: HL-60(TB) leukemia
HOP-62 NSCLC = system: HOP-62 NSCLC
HOP-92 NSCLC = system: HOP-92 NSCLC
HS 578T breast = system: HS 578T breast
HT29 colon = system: HT29 colon
IGROV1 ovarian = system: IGROV1 ovarian
K-562 leukemia = system: K-562 leukemia
KM12 colon = system: KM12 colon
LOX IMVI melanoma = system: LOX IMVI melanoma
M14 melanoma = system: M14 melanoma
MALME-3M melanoma = system: MALME-3M melanoma
MCF7 breast = system: MCF7 breast
MDA-MB-231 breast = system: MDA-MB-231 breast
MDA-MB-435 = system: MDA-MB-435
MDA-N = system: MDA-N
MOLT-4 leukemia = system: MOLT-4 leukemia
NCI-H226 lung = system: NCI-H226 lung
NCI-H23 lung = system: NCI-H23 lung
NCI-H522 lung = system: NCI-H522 lung
NCI/ADR-RES ovarian = system: NCI/ADR-RES ovarian
OVCAR-3 ovarian = system: OVCAR-3 ovarian
OVCAR-4 ovarian = system: OVCAR-4 ovarian
OVCAR-5 ovarian = system: OVCAR-5 ovarian
OVCAR-8 ovarian = system: OVCAR-8 ovarian
PC-3 prostate = system: PC-3 prostate
RPMI-8226 leukemia = system: RPMI-8226 leukemia
SF-268 CNS = system: SF-268 CNS
SF-295 CNS = system: SF-295 CNS
SF-539 CNS = system: SF-539 CNS
SK-MEL-2 melanoma = system: SK-MEL-2 melanoma
SK-MEL-28 melanoma = system: SK-MEL-28 melanoma
SK-MEL-5 melanoma = system: SK-MEL-5 melanoma
SK-OV-3 ovarian = system: SK-OV-3 ovarian
SN12C renal = system: SN12C renal
SNB-19 CNS = system: SNB-19 CNS
SNB-75 CNS = system: SNB-75 CNS
SR leukemia = system: SR leukemia
SW-620 colon = system: SW-620 colon
T-47D breast = system: T-47D breast
TK-10 renal = system: TK-10 renal
U251 CNS = system: U251 CNS
UACC-257 melanoma = system: UACC-257 melanoma
UACC-62 melanoma = system: UACC-62 melanoma
UO-31 renal = system: UO-31 renal
RXF 393 renal = system: RXF 393 renal
NCI-H460 lung = system: NCI-H460 lung

Measured: TGI

Cc1cc(Nc2ccc(S(=O)(=O)O)cc2)c2ccccc2n1
> 100 µM: 786-0 renal | A498 renal | A549 NSCLC | ACHN renal | BT-549 breast | CAKI-1 renal | CCRF-CEM leukemia | COLO 205 colon | DU-145 prostate | EKVX NSCLC | HCC-2998 colon | HCT-116 colon | HCT-15 colon | HL-60(TB) leukemia | HOP-62 NSCLC | HOP-92 NSCLC | HS 578T breast | HT29 colon | IGROV1 ovarian | K-562 leukemia | KM12 colon | LOX IMVI melanoma | M14 melanoma | MALME-3M melanoma | MCF7 breast | MDA-MB-231 breast | MDA-MB-435 | MDA-N | MOLT-4 leukemia | NCI-H226 lung | NCI-H23 lung | NCI-H522 lung | NCI/ADR-RES ovarian | OVCAR-3 ovarian | OVCAR-4 ovarian | OVCAR-5 ovarian | OVCAR-8 ovarian | PC-3 prostate | RPMI-8226 leukemia | SF-268 CNS | SF-295 CNS | SF-539 CNS | SK-MEL-2 melanoma | SK-MEL-28 melanoma | SK-MEL-5 melanoma | SK-OV-3 ovarian | SN12C renal | SNB-19 CNS | SNB-75 CNS | SR leukemia | SW-620 colon | T-47D breast | TK-10 renal | U251 CNS | UACC-257 melanoma | UACC-62 melanoma | UO-31 renal

CC(C)CC(NC(=O)OC(C)(C)C)C(=O)NC(CC(=O)OCc1ccccc1)C(N)=O (stereo not drawn) (Boc-Leu-Asp(OBn)-NH2; configuration not given here)
> 100 µM: 786-0 renal | A498 renal | A549 NSCLC | ACHN renal | BT-549 breast | CAKI-1 renal | COLO 205 colon | DU-145 prostate | EKVX NSCLC | HCT-116 colon | HCT-15 colon | HOP-92 NSCLC | HS 578T breast | HT29 colon | IGROV1 ovarian | K-562 leukemia | KM12 colon | LOX IMVI melanoma | M14 melanoma | MALME-3M melanoma | MCF7 breast | MDA-MB-231 breast | MDA-MB-435 | MDA-N | NCI-H226 lung | NCI-H23 lung | NCI-H522 lung | NCI/ADR-RES ovarian | OVCAR-3 ovarian | OVCAR-4 ovarian | OVCAR-5 ovarian | OVCAR-8 ovarian | PC-3 prostate | RXF 393 renal | SF-268 CNS | SF-295 CNS | SF-539 CNS | SK-MEL-2 melanoma | SK-MEL-28 melanoma | SK-MEL-5 melanoma | SK-OV-3 ovarian | SN12C renal | SNB-19 CNS | SNB-75 CNS | SR leukemia | SW-620 colon | T-47D breast | TK-10 renal | U251 CNS | UACC-257 melanoma | UACC-62 melanoma | UO-31 renal

O=c1c(-c2ccccc2)c2n(c3ccccc13)CCN2
86.9 µM: SNB-19 CNS
61.1 µM: SK-MEL-2 melanoma
> 100 µM: 786-0 renal | A498 renal | A549 NSCLC | ACHN renal | BT-549 breast | CAKI-1 renal | CCRF-CEM leukemia | COLO 205 colon | DU-145 prostate | EKVX NSCLC | HCC-2998 colon | HCT-116 colon | HCT-15 colon | HL-60(TB) leukemia | HOP-62 NSCLC | HOP-92 NSCLC | HS 578T breast | HT29 colon | IGROV1 ovarian | K-562 leukemia | KM12 colon | LOX IMVI melanoma | M14 melanoma | MCF7 breast | MDA-MB-231 breast | MDA-MB-435 | MDA-N | MOLT-4 leukemia | NCI-H226 lung | NCI-H23 lung | NCI-H460 lung | NCI/ADR-RES ovarian | OVCAR-4 ovarian | OVCAR-5 ovarian | OVCAR-8 ovarian | PC-3 prostate | RPMI-8226 leukemia | SF-268 CNS | SF-295 CNS | SF-539 CNS | SK-MEL-28 melanoma | SK-MEL-5 melanoma | SN12C renal | SNB-75 CNS | SR leukemia | SW-620 colon | T-47D breast | TK-10 renal | U251 CNS | UACC-257 melanoma | UACC-62 melanoma | UO-31 renal
66.6 µM: OVCAR-3 ovarian
